Literature values, collected in patent publication US7781400B2, “Pharmaceutical compositions comprising dextran with a molecular weight of 1.0-100 KDA and processes for their preparation” (BOWS Pharmaceuticals AG, priority 2006, dated 2010).

Conditions: in vivo

Substance: polyglycolide
- adverse tissue response rates: up to 47%
